In ChEMBL document CHEMBL1201862, “PubChem BioAssay data set” (2004):
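How tested: cells in 96-well plates exposed to compound for 48 hours at five concentrations. Abbreviation: GI50, concentration required for 50% inhibition of growth.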 Calls of active or inactive are those of the source. Cut-off read from the data, not from the text of the source: active = GI50 up to about 1.1 µM and inactive = higher.

Experiments:
Assay in all cases: inhibition of tumour cell growth, NCI panel, 48 h
HCT-116 = test system: HCT-116
HT-29 = test system: HT-29
T47D = test system: T47D
MOLT-4 = test system: MOLT-4
KM12 = test system: KM12
SF-268 = test system: SF-268
UO-31 = test system: UO-31
EKVX = test system: EKVX
MDA-MB-435 = test system: MDA-MB-435
OVCAR-4 = test system: OVCAR-4
OVCAR-8 = test system: OVCAR-8
OVCAR-3 = test system: OVCAR-3
PC-3 = test system: PC-3
HOP-62 = test system: HOP-62
786-0 = test system: 786-0
LOX IMVI = test system: LOX IMVI
ACHN = test system: ACHN
COLO 205 = test system: COLO 205
A549 = test system: A549
NCI-H460 = test system: NCI-H460

SMILES | GI50 (HCT-116) | GI50 (HT-29) | GI50 (T47D) | GI50 (MOLT-4) | GI50 (KM12) | GI50 (SF-268) | GI50 (UO-31) | GI50 (EKVX) | GI50 (MDA-MB-435) | GI50 (OVCAR-4) | GI50 (OVCAR-8) | GI50 (OVCAR-3) | GI50 (PC-3) | GI50 (HOP-62) | GI50 (786-0) | GI50 (LOX IMVI) | GI50 (ACHN) | GI50 (COLO 205) | GI50 (A549) | GI50 (NCI-H460)
S=c1c2cn[nH]c2nc2scc(-c3ccc(Cl)cc3)n12 | 14.2 µM (inactive) | 16.7 µM (inactive) | > 10 µM (inactive) | 15.6 µM (inactive) | 11.1 µM (inactive) | 16.6 µM (inactive) | 6.24 µM (inactive) | 17.3 µM (inactive) | 3.78 µM (inactive) | 43.1 µM (inactive) | 16 µM (inactive) | 20.1 µM (inactive) | 12.9 µM (inactive) | 16.9 µM (inactive) | 14.1 µM (inactive) | 11.3 µM (inactive) | 12.9 µM (inactive) | 23.5 µM (inactive) | 13 µM (inactive) | 20.6 µM (inactive)
Cc1nc(C)c(N2CCN(C(=O)O)CC2)c(O)n1 | > 100 µM (inactive) | > 100 µM (inactive) | > 100 µM (inactive) | > 100 µM (inactive) | > 100 µM (inactive) | > 100 µM (inactive) | > 100 µM (inactive) | > 100 µM (inactive) | > 100 µM (inactive) | > 100 µM (inactive) | > 100 µM (inactive) | > 100 µM (inactive) | > 100 µM (inactive) | > 100 µM (inactive) | > 100 µM (inactive) | > 100 µM (inactive) | > 100 µM (inactive) | > 100 µM (inactive) | > 100 µM (inactive) | > 100 µM (inactive)
CC(C)(C)OCC1NC(=O)[C@@H]2Cc3c([nH]c4ccccc34)C(c3ccccc3)N2C1=O (some centres undefined) | > 50 µM (inactive) | > 50 µM (inactive) | > 50 µM (inactive) | 16.2 µM (inactive) | > 50 µM (inactive) | > 50 µM (inactive) | > 50 µM (inactive) | > 50 µM (inactive) | > 50 µM (inactive) | > 50 µM (inactive) | > 50 µM (inactive) | > 50 µM (inactive) | > 50 µM (inactive) | > 50 µM (inactive) | > 50 µM (inactive) | > 50 µM (inactive) | > 50 µM (inactive) | > 50 µM (inactive) | > 50 µM (inactive) | > 50 µM (inactive)
OCC(O)C(O)C(O)C1SC(c2ccccc2)=NN1c1ccccc1 (centres undefined) | 69.5 µM (inactive) | > 92 µM (inactive) | > 46.8 µM (inactive) | > 81.3 µM (inactive) | > 100 µM (inactive) | 24.6 µM (inactive) | 66.2 µM (inactive) | > 95.7 µM (inactive) | 97.9 µM (inactive) | > 88.3 µM (inactive) | 54 µM (inactive) | > 68.9 µM (inactive) | > 57.5 µM (inactive) | 38.9 µM (inactive) | 37 µM (inactive) | 50.7 µM (inactive) | 64.7 µM (inactive) | > 100 µM (inactive) | 78.3 µM (inactive) | > 78 µM (inactive)
COc1ccc(C2SC(C)C(=O)N2c2nc(-c3nc(-c4ccc(Cl)cc4)cs3)cs2)cc1 (centres undefined) | > 100 µM (inactive) | > 100 µM (inactive) | 46.1 µM (inactive) | 49.2 µM (inactive) | > 100 µM (inactive) | > 100 µM (inactive) | > 100 µM (inactive) | > 100 µM (inactive) | > 100 µM (inactive) | > 100 µM (inactive) | > 100 µM (inactive) | > 100 µM (inactive) | 66.8 µM (inactive) | > 100 µM (inactive) | > 100 µM (inactive) | > 100 µM (inactive) | > 100 µM (inactive) | > 100 µM (inactive) | > 100 µM (inactive) | > 100 µM (inactive)
CC(C)(C)c1cc(-c2cc(C(C)(C)C)[nH]n2)[nH]n1 | > 100 µM (inactive) | > 100 µM (inactive) | > 100 µM (inactive) | 96.2 µM (inactive) |  | > 100 µM (inactive) | > 100 µM (inactive) | > 100 µM (inactive) | > 100 µM (inactive) | > 100 µM (inactive) |  | > 100 µM (inactive) | > 100 µM (inactive) | > 100 µM (inactive) | > 100 µM (inactive) | 93.3 µM (inactive) | > 100 µM (inactive) | > 100 µM (inactive) | > 100 µM (inactive) | > 100 µM (inactive)
COC(=O)[C@H]1[C@@H](O)[C@@]2(O)c3c(OC)cc(OC)cc3O[C@@]2(c2ccc3c(c2)OCO3)[C@@H]1c1ccccc1 | < 0.005 µM (active) | < 0.005 µM (active) | 0.00516 µM (active) | < 0.005 µM (active) | < 0.005 µM (active) | 0.0117 µM (active) | 0.00604 µM (active) | 0.017 µM (active) | 0.00603 µM (active) | 0.0149 µM (active) | 0.0253 µM (active) | 0.0225 µM (active) | 0.0113 µM (active) | 0.00879 µM (active) | 0.00625 µM (active) | 0.00525 µM (active) | < 0.005 µM (active) | 0.00736 µM (active) | < 0.005 µM (active) | < 0.005 µM (active)
Cc1ccc(/C=C2/NC(=S)SC2=O)cc1 | 30.5 µM (inactive) | 28.6 µM (inactive) | 31.3 µM (inactive) | 33.8 µM (inactive) | 33.3 µM (inactive) |  | 24.5 µM (inactive) | 28.4 µM (inactive) | 36.5 µM (inactive) | 28.9 µM (inactive) | 31 µM (inactive) | 43.7 µM (inactive) | 38.4 µM (inactive) | 51.6 µM (inactive) | 34.6 µM (inactive) | 32.8 µM (inactive) | 33 µM (inactive) | 35.7 µM (inactive) | 36.7 µM (inactive) | 22.4 µM (inactive)
COc1cc(C)c(C2NC(=O)c3ccccc3N2)cc1C (centres undefined) | 0.34 µM (active) | 0.321 µM (active) | 0.447 µM (active) | 1.04 µM (active) | 0.15 µM (active) | 0.518 µM (active) | 0.468 µM (active) | 1.12 µM (inactive) | 0.0294 µM (active) | 0.342 µM (active) | 0.942 µM (active) | 0.127 µM (active) | 0.265 µM (active) | 1.36 µM (inactive) | 0.417 µM (active) | 0.451 µM (active) | 0.47 µM (active) | 0.313 µM (active) | 0.596 µM (active) | 0.342 µM (active)
C1=N\c2ccc(cc2)-c2ccc(cc2)/N=C\c2ccccc2OCc2cccc(n2)COc2ccccc2/1 | 24.4 µM (inactive) | > 100 µM (inactive) | > 54 µM (inactive) | > 100 µM (inactive) | > 100 µM (inactive) | 20.6 µM (inactive) | > 60.7 µM (inactive) | 36.4 µM (inactive) | > 100 µM (inactive) | > 100 µM (inactive) | 31.8 µM (inactive) | > 100 µM (inactive) | > 100 µM (inactive) | 5.27 µM (inactive) | 9.38 µM (inactive) | > 44.2 µM (inactive) | 21.3 µM (inactive) | > 100 µM (inactive) | 72.8 µM (inactive) | 71.6 µM (inactive)
Cc1ccc(NC(Nc2ccc(C)cc2C)=C(/C=C(\Cl)[N+](=O)[O-])[N+](=O)[O-])c(C)c1 | 1.7 µM (inactive) | 5.43 µM (inactive) | 1.72 µM (inactive) | 1.53 µM (inactive) | 10.4 µM (inactive) | 4.82 µM (inactive) | 5.9 µM (inactive) | 15.2 µM (inactive) | 2.87 µM (inactive) | 3.69 µM (inactive) | 2.81 µM (inactive) | 2.72 µM (inactive) | 7.03 µM (inactive) | 17.7 µM (inactive) | 2.81 µM (inactive) | 1.64 µM (inactive) | 2.97 µM (inactive) | 2.18 µM (inactive) | 17.3 µM (inactive) | 16.6 µM (inactive)
CCCc1cc(=O)oc2c3c(c4c(c12)OC(C)(C)CC4)O[C@H](C)[C@@H](C)[C@H]3O | 15.5 µM (inactive) | 10 µM (inactive) | 12 µM (inactive) | 12.4 µM (inactive) | 12.8 µM (inactive) | 17.4 µM (inactive) | 13.8 µM (inactive) | 12.6 µM (inactive) | 11.5 µM (inactive) | 14.2 µM (inactive) | 15.5 µM (inactive) | 18.5 µM (inactive) | 10.1 µM (inactive) | 16.6 µM (inactive) | 15.7 µM (inactive) | 14.8 µM (inactive) |  | 15.7 µM (inactive) | 20 µM (inactive) | 19 µM (inactive)
CC(C)(C)C1=C(Br)C(OC(=O)C(F)(F)F)(C(C)(C)C)OP1(=O)c1ccccc1 (centres undefined) | 33 µM (inactive) | 37 µM (inactive) | 30 µM (inactive) |  | 63 µM (inactive) | 61.4 µM (inactive) | 52.5 µM (inactive) | 23.8 µM (inactive) | 53.3 µM (inactive) | 49.1 µM (inactive) | 34.7 µM (inactive) | 31.9 µM (inactive) | 18.1 µM (inactive) | 25.9 µM (inactive) | 40.2 µM (inactive) | 45.8 µM (inactive) | 32.7 µM (inactive) | 18.5 µM (inactive) | 25.6 µM (inactive) | 35.5 µM (inactive)
Cc1c(/C=N/NC(=S)Nc2ccccc2Cl)c(=O)n(-c2ccccc2)n1C | 28.6 µM (inactive) | 29.4 µM (inactive) | 13 µM (inactive) | 20.5 µM (inactive) | 29.3 µM (inactive) | 43.8 µM (inactive) | 15.1 µM (inactive) | 45.5 µM (inactive) | > 100 µM (inactive) | 42.4 µM (inactive) | 27.7 µM (inactive) | 34.1 µM (inactive) | 43 µM (inactive) | 22.7 µM (inactive) | 19.9 µM (inactive) | 55.3 µM (inactive) |  | 38.7 µM (inactive) | 27.6 µM (inactive) | 25.4 µM (inactive)
